From article PMC7475166 (Journal of medicinal chemistry, 2015)

What was measured:
[1] = biological target: Bcr-Abl^T315I in Ba/F3 cells (Homo sapiens, UniProt P00519+P11274, T315I); conditions: 500 nM, 3 h, immunoblot
[2] = biological target: Bcr-Abl^WT in Ba/F3 cells (Homo sapiens, UniProt P00519+P11274); conditions: 500 nM, 3 h, immunoblot
CSF1R = CSF1R (Homo sapiens, UniProt P07333); experiment: SelectScreen Kinase Profiling; assay type: biochemical; conditions: read-out: inhibition of CSF1R
Chain of CSF1R (P07333 20-972): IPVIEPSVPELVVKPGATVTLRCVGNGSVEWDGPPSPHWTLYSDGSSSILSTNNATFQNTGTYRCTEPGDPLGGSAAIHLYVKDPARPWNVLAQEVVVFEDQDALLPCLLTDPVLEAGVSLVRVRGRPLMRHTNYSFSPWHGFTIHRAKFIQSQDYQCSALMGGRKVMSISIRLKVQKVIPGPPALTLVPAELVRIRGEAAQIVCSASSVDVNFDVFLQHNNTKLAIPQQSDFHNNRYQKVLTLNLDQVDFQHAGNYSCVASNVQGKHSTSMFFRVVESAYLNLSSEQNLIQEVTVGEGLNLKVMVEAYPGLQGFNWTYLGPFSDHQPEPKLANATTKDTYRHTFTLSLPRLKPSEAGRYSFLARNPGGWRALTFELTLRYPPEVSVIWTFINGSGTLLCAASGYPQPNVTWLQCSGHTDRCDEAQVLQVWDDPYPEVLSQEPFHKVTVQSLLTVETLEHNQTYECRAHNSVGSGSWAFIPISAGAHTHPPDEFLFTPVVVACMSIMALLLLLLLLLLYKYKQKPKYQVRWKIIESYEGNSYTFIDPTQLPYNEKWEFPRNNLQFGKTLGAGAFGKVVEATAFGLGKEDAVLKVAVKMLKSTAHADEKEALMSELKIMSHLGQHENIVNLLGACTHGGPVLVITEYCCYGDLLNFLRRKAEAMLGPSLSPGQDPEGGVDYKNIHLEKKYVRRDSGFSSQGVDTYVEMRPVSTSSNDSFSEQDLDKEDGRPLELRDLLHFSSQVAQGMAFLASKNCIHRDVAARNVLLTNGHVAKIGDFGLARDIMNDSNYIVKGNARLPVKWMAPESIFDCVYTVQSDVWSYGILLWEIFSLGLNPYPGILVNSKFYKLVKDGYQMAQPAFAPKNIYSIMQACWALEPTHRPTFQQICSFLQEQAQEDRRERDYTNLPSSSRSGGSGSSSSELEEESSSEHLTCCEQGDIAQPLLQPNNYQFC

TrkA = TrkA (Homo sapiens, UniProt P04629); experiment: SelectScreen Kinase Profiling; assay type: biochemical
Chain of TrkA (P04629 33-796): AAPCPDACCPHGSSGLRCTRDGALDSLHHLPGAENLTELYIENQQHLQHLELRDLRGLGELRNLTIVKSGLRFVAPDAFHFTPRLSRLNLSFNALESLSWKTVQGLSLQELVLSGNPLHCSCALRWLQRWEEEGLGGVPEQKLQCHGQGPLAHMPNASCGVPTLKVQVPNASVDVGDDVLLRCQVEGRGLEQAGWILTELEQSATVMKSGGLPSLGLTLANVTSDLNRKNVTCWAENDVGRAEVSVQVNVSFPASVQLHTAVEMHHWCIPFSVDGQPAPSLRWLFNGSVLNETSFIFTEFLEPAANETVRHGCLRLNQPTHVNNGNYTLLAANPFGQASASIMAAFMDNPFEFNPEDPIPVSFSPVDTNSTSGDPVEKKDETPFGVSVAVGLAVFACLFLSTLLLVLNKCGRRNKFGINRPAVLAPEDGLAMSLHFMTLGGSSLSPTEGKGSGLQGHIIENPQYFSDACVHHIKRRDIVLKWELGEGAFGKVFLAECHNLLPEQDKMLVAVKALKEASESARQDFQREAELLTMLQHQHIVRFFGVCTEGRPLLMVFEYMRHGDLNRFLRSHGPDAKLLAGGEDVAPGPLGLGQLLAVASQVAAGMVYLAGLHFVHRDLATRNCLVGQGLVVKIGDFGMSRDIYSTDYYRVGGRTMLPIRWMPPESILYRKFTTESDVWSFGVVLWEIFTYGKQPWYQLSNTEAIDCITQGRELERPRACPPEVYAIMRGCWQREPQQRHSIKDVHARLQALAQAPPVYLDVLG

[3] = tested on: parental Ba/F3 cells that do not express Bcr-Abl; experiment: Counterscreen against parental Ba/F3 cells; assay type: cell-based
Yes1 = Yes1 (Homo sapiens, UniProt P07947); experiment: SelectScreen Kinase Profiling; assay type: biochemical; conditions: read-out: inhibition of Yes1
Chain of Yes1 (P07947 whole entry): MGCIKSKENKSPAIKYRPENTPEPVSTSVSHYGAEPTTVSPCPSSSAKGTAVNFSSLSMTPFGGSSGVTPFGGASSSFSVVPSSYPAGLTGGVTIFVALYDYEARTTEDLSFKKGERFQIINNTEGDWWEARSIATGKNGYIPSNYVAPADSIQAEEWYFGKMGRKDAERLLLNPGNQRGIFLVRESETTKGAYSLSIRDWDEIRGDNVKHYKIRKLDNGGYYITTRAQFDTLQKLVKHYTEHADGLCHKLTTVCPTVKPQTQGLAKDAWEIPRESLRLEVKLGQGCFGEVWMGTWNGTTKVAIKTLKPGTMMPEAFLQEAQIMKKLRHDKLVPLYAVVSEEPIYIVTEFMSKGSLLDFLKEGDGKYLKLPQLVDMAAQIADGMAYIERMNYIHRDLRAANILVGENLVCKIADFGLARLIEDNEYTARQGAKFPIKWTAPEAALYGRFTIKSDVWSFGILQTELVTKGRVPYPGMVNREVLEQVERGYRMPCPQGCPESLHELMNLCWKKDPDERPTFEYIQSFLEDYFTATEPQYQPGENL

[4] = tested on: diverse set of 66 kinases; experiment: SelectScreen Kinase Profiling, whole panel; assay type: biochemical; conditions: 50 nM
Blk = Blk (Homo sapiens, UniProt P51451); experiment: SelectScreen Kinase Profiling; assay type: biochemical
Chain of Blk (P51451 whole entry): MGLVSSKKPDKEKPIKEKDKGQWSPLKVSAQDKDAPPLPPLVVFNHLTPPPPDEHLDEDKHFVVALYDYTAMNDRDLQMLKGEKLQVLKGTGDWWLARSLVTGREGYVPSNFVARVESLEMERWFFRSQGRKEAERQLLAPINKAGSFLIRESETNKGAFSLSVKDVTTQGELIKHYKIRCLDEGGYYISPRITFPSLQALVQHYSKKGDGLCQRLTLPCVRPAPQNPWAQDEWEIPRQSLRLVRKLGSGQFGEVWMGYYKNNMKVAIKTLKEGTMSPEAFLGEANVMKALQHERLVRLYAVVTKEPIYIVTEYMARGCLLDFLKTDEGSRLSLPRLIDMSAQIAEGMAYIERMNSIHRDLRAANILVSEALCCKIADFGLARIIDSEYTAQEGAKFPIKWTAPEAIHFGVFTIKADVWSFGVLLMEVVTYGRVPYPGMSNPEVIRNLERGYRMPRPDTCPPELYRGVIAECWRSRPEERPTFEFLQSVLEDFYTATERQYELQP

MUSK = biological target: T1, MUSK (Homo sapiens, UniProt O15146); experiment: SelectScreen Kinase Profiling; assay type: biochemical
T1 sequence (O15146 24-869): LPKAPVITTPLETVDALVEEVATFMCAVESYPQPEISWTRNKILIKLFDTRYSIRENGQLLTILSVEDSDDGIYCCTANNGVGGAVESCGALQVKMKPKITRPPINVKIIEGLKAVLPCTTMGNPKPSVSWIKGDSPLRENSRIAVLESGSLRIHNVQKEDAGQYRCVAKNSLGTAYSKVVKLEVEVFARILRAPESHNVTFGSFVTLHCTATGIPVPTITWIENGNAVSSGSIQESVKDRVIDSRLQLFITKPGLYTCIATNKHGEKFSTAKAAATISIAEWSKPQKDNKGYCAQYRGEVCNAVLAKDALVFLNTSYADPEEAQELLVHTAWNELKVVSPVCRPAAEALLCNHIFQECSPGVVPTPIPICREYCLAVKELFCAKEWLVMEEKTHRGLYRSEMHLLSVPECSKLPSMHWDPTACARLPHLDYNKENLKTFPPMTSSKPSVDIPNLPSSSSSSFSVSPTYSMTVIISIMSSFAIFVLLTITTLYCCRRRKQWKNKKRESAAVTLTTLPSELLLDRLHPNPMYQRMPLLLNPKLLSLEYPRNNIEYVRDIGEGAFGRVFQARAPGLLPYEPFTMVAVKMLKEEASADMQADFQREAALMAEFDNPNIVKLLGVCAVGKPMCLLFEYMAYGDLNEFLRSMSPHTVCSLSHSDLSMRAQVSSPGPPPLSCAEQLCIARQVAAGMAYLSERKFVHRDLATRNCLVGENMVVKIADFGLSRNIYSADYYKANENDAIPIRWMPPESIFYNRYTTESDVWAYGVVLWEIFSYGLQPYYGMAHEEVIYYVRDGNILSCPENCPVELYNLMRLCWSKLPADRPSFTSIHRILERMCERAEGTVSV

phosphorylation of Abl (Tyr412) and STAT5 (Tyr694) [1]	phosphorylation of Abl (Tyr412) and STAT5 (Tyr694) [2]	inhibition of TrkA (TrkA; 50 nM)	number of kinases potently inhibited (>80% inhibition) [4]	inhibition of Blk (Blk; 50 nM)	inhibition of MUSK (MUSK; 50 nM)	Compound	inhibition at 0.05 µM (CSF1R) [%]	window between IC50 values against parental Ba/F3 cells and those expressing Bcr-Abl [3]	inhibition of proliferation of parental Ba/F3 cells ([3]; at concentrations below 1 μM)	inhibition at 0.05 µM (Yes1) [%]	inhibition at 0.05 µM (TrkA; read-out: inhibition of TrkA) [%]	inhibition at 0.05 µM (Blk; read-out: inhibition of Blk) [%]	inhibition at 0.05 µM (MUSK; read-out: inhibition of MUSK) [%]
only partially inhibited	only partially inhibited					CC(C)n1nc(C#Cc2cccc(O)c2)c2c(N)ncnc21 [Compound 3, 3-((4-Amino-1-isopropyl-1H-pyrazolo[3,4-d]pyrimidin-3-yl)-ethynyl)phenol]							
abolished	abolished	not significantly affected	9	not significantly affected	not significantly affected	CC(C)n1nc(C#Cc2cccc(NC(=O)c3cccc(C(F)(F)F)c3)c2)c2c(N)ncnc21 [Compound 15, N-(3-((4-Amino-1-isopropyl-1H-pyrazolo[3,4-d]pyrimidin-3-yl)-ethynyl)phenyl)-3-(trifluoromethyl)benzamide]	40 to 80	over 100 fold	do not inhibit	40 to 80			
						Cc1ccc(C(=O)Nc2ccc(CN3CCN(C)CC3)c(C(F)(F)F)c2)cc1C#Cc1cnc2cccnn12 [Ponatinib, reference compound]	> 80			> 80	> 80	> 80	> 80
